{"source": "patent US8623893B2", "about": "“Pyridino-pyridinone derivatives, preparation and therapeutic use thereof” (SANOFI, priority 2009, dated 2014)", "key": {"[1]": {"biological_target": "T1, Flt-3 receptor (constitutively active mutant Flt3ITD, MV4-11 cell line) (Homo sapiens, UniProt P36888, INS600HVDFREYEYD)", "T1 construct": "bearing a constitutively active mutant Flt3ITD; endogenous in cells; host or cells: MV4-11", "T1 sequence (P36888 with tags, fused parts or gaps INS600HVDFREYEYD)": "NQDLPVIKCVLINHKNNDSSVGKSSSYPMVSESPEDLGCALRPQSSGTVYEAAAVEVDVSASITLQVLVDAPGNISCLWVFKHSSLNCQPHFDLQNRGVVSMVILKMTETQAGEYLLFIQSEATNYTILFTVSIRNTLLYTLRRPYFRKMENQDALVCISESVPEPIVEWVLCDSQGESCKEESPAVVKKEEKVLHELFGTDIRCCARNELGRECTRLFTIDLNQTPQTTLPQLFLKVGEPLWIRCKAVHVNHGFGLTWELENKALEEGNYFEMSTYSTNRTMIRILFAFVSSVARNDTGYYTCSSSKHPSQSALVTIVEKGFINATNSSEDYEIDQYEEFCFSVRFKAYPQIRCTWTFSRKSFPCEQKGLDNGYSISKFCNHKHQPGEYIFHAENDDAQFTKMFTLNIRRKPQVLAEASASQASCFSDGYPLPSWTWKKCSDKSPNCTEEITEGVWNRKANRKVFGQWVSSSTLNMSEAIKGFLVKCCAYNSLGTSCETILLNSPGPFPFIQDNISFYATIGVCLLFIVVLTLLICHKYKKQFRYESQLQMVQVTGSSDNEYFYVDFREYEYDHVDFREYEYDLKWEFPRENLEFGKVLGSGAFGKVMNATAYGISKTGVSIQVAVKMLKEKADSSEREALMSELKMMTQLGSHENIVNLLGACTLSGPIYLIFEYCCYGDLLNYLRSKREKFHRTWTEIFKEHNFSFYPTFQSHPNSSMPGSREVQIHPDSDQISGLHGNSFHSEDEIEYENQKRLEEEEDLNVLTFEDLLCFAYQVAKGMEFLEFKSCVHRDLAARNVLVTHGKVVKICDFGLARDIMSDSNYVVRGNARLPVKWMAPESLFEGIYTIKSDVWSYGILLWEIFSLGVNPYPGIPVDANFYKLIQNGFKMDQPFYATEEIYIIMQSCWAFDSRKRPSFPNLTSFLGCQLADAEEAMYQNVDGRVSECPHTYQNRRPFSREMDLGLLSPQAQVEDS", "assay": "Inhibition of proliferation of MV4-11 cells (tyrosine kinase activity of Flt-3 receptor), CellTiter-Glo, 72 h", "format": "cell-based", "conditions": "72 h incubation, cellular ATP, read-out: IC50 (concentration that inhibits 50% of the proliferation of the MV4-11 cells)", "method": "(§1) The inhibitory activity with respect to PDGF or Flt-3 receptors is given by the concentration that inhibits 50% of the proliferation activity of cells Baf3 tel/PDGF or MV4-11, respectively.\nMeasurement of Inhibition of the Tyrosine Kinase Activity of the Flt-3 Receptor\nThe inhibitory effect of the compounds according to the invention on the tyrosine kinase activity of the Flt-3 receptor was evaluated on the MV4-11 cell line, a line established from a leukaemia of the AML type and bearing a constitutively active mutant Flt3ITD. The inhibitory activity is correlated with inhibition of cell growth, according to the protocols described by SPIEKERMANN, K. et al., Blood, 2003, 101, (4) 1494-1504 and O'FARRELL, A.-M. et al., Blood, 2003, 101, (9) 3597-3605.\n(§2) The MV4-11 cells are washed with PBS buffer and seeded in 96-well plates, at a density of 1.10^5 cells/ml (100 μl per well), in RPMI 1640 containing 10% of FCS, in the presence or absence of the test compounds. After incubation for 72 h, viable cells are quantified by measurement of cellular ATP using the CellTiter-Glo® kit (Promega, Cat G7571). The cells are treated according to the instructions given by the supplier of the kit and the luminescence is measured using a Luminoskan (Ascent, Labsystem) with the following parameters: measurement: single; integration time: 1000 ms, lag time: 5 s.\nThe inhibitory activity with respect to the Flt-3 receptor is given by the concentration that inhibits 50% of the proliferation of the MV4-11 cells."}, "[2]": {"biological_target": "T2, fusion protein Tel/PDGF-R beta (PDGF beta receptor) in BaF/3 cells (Homo sapiens, UniProt P09619)", "T2 construct": "the transmembrane and intracellular part of the PDGF-R beta receptor; expressed in transfected cells; host or cells: murine haematopoietic cell line BaF/3; the other entry of the earlier key: ETV6 (P41212, Transcription factor ETV6)", "T2 sequence (P09619 with tags, fused parts or gaps)": "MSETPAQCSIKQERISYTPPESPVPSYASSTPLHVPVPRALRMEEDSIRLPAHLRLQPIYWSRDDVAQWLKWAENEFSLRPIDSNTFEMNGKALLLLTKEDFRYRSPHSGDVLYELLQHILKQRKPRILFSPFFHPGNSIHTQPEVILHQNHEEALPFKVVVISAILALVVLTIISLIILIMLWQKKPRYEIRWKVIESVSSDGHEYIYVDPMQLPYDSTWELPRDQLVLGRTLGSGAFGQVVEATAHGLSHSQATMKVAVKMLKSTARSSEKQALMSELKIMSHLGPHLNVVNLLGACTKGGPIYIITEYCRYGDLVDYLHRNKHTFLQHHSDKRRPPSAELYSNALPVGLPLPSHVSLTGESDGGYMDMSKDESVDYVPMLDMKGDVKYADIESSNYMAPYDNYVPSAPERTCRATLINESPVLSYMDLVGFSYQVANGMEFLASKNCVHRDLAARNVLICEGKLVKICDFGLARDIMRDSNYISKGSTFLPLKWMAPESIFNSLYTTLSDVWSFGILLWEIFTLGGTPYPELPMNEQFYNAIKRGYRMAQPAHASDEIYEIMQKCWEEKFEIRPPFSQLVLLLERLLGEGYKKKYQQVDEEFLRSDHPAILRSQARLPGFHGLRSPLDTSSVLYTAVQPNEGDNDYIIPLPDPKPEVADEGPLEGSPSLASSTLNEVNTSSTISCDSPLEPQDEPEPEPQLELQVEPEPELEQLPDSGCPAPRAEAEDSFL", "assay": "Inhibition of proliferation of BaF3 Tel/PDGF cells (tyrosine kinase activity of PDGF-R beta), CellTiter-Glo, 72 h", "format": "cell-based, murine", "conditions": "72 h incubation, cellular ATP, read-out: IC50 (concentration that inhibits 50% of the proliferation of Baf3 tel/PDGF cells)", "from_the_text": "as §1\nMeasurement of Inhibition of the Tyrosine Kinase Activity of the Receptor to PDGF Beta (PDGF-Rβ) (Baf-3 tel/PDGFRβ):\nThis test consists of evaluating the effects of the compounds on the tyrosine kinase activity of the PDGF beta receptor.\nThe inhibitory effect of the compounds according to the invention on the tyrosine kinase activity of the PDGF-R receptor was evaluated on the murine haematopoietic cell line BaF/3 transfected with a plasmid coding for the fusion protein Tel/PDGF-R beta. This fusion protein is found in chronic myeloid myelomonocytic leukaemias (CMML). It comprises the N-terminal part of the transcription factor Tel and the transmembrane and intracellular part of the PDGF-R beta receptor. This fusion protein is present in dimerized form (presence of an oligomerization domain in the N-terminal part of Tel) and accordingly leads to the constitutive activity of the kinase domain of PDGF-R beta.\nas §2, with “The BaF3 Tel/PDGF” for “The MV4-11”, “with phosphate” for “with PBS”, “of 5.10^4” for “of 1.10^5”, “([…]” for “(100 μl”, “h, the” for “h,”, “measured with” for “measured using”\nIt thus appears that the compounds according to the invention have an inhibitory activity on the tyrosine kinase activity of PDGF-R beta. This activity is given by the concentration that inhibits 50% of the proliferation of Baf3 tel/PDGF cells (IC50)."}}, "data": [{"smiles": "CCn1c(N)c(-c2ncc[nH]2)c(=O)c2ccc(-c3ccc(CC(=O)Nc4nnc(C5CC5)s4)cc3)nc21", "note": "[Compound 20, 2-{4-[7-Amino-8-ethyl-6-(1H-imidazol-2-yl)-5-oxo-5,8-dihydro-[1,8]naphthyridin-2-yl]-phenyl}-N-(5-cyclopropyl-[1,3,4]thiadiazol-2-yl)-acetamide]", "values": [{"measurement": "IC50", "setting": "[1]", "result": 26, "unit": "nM"}, {"measurement": "IC50", "setting": "[2]", "result": 8, "unit": "nM"}]}, {"smiles": "CCn1c(N)c(-c2ncc[nH]2)c(=O)c2ccc(-c3ccc(CC(=O)Nc4onc(C)c4C)cc3)nc21", "note": "[Compound 27, 2-{4-[7-Amino-8-ethyl-6-(1H-imidazol-2-yl)-5-oxo-5,8-dihydro-[1,8]naphthyridin-2-yl]-phenyl}-N-(3,4-dimethyl-isoxazol-5-yl)-acetamide]", "values": [{"measurement": "IC50", "setting": "[1]", "result": 30, "unit": "nM"}, {"measurement": "IC50", "setting": "[2]", "result": 2, "unit": "nM"}]}, {"smiles": "CCc1ccnc(NC(=O)Cc2ccc(-c3ccc4c(=O)c(-c5ncc[nH]5)c(N)n(CC)c4n3)cc2)c1", "note": "[Compound 43, 2-{4-[7-Amino-8-ethyl-6-(1H-imidazol-2-yl)-5-oxo-5,8-dihydro-[1,8]naphthyridin-2-yl]-phenyl}-N-(4-ethyl-pyridin-2-yl)-acetamide]", "values": [{"measurement": "IC50", "setting": "[1]", "result": 19, "unit": "nM"}, {"measurement": "IC50", "setting": "[2]", "result": 1.4, "unit": "nM"}]}, {"smiles": "CCn1c(N)c(-c2nc(C)c[nH]2)c(=O)c2ccc(-c3ccc(CC(=O)NCc4ccncc4)cc3)nc21", "note": "[Compound 50, 2-{4-[7-Amino-8-ethyl-6-(4-methyl-1H-imidazol-2-yl)-5-oxo-5,8-dihydro-[1,8]naphthyridin-2-yl]-phenyl}-N-pyridin-4-ylmethyl-acetamide]", "values": [{"measurement": "IC50", "setting": "[1]", "result": 115, "unit": "nM"}, {"measurement": "IC50", "setting": "[2]", "result": 6.6, "unit": "nM"}]}, {"smiles": "CCn1c(N)c(-c2ncc[nH]2)c(=O)c2ccc(-c3ccc(CC(=O)Nc4ncc(C)s4)cc3)nc21", "note": "[Compound 8, 2-{4-[7-Amino-8-ethyl-6-(1H-imidazol-2-yl)-5-oxo-5,8-dihydro-[1,8]naphthyridin-2-yl]-phenyl}-N-(5-methyl-thiazol-2-yl)-acetamide]", "values": [{"measurement": "IC50", "setting": "[1]", "result": 52, "unit": "nM"}, {"measurement": "IC50", "setting": "[2]", "result": 2, "unit": "nM"}]}, {"smiles": "CCn1c(N)c(-c2ncc[nH]2)c(=O)c2ccc(-c3ccc(CC(=O)Nc4cnccc4C)cc3)nc21", "note": "[Compound 42, 2-{4-[7-Amino-8-ethyl-6-(1H-imidazol-2-yl)-5-oxo-5,8-dihydro-[1,8]naphthyridin-2-yl]-phenyl}-N-(4-methyl-pyridin-3-yl)-acetamide]", "values": [{"measurement": "IC50", "setting": "[1]", "result": 84, "unit": "nM"}]}, {"smiles": "CCn1c(N)c(-c2ncc[nH]2)c(=O)c2ccc(-c3ccc(CC(=O)Nc4ncccc4C)cc3)nc21", "note": "[Compound 32, 2-{4-[7-Amino-8-ethyl-6-(1H-imidazol-2-yl)-5-oxo-5,8-dihydro-[1,8]naphthyridin-2-yl]-phenyl}-N-(3-methyl-pyridin-2-yl)-acetamide]", "values": [{"measurement": "IC50", "setting": "[1]", "result": 69, "unit": "nM"}]}]}
